# Measurements taken from ChEMBL document CHEMBL5260810, “Inhibition of bromodomain-containing protein 9 for the prevention of epigenetically-defined drug resistance” (Bioorg Med Chem Lett, 2017).
# Calls of active or inactive are those of the source. No cut-off for these calls is given here.
# How the values were obtained:
# [1] = target: T1, Bromodomain-containing protein 4 (Homo sapiens, UniProt O60885); experiment: Displacement of biotinylated small-molecule ligand from recombinant His-tagged BRD4 bromodomain 1 (unknown origin) measured after 10 mins by TR-FRET assay
# [2] = target: T1, Bromodomain-containing protein 4; experiment: Displacement of biotinylated small-molecule ligand from recombinant His-tagged BRD4 bromodomain 2 (unknown origin) measured after 10 mins by TR-FRET assay
# [3] = target: Chromatin remodeling regulator CECR2 (Homo sapiens, UniProt Q9BXF3); experiment: Displacement of biotinylated small-molecule ligand from recombinant His-tagged CECR2 (unknown origin) measured after 10 mins by TR-FRET assay
# [4] = target: Transcription initiation factor TFIID subunit 1 (Homo sapiens, UniProt P21675); experiment: Displacement of biotinylated small-molecule ligand from recombinant His-tagged TAF1 bromodomain 2 (unknown origin) measured after 10 mins by TR-FRET assay
# PC-9 [5] = experiment: Cytotoxicity against human PC-9 cells assessed as decrease in cell number at 1 uM supplemented with fresh medium containing compound every 3 days for 9 days by Beckman Coulter counting method; format: functional; design: scale not given: the % may be the effect or the level left; details: time 3 day
# PC-9 [6] = experiment: Cytotoxicity against human PC-9 cells assessed as decrease in cell number at 50 nM supplemented with fresh medium containing compound every 3 days for 9 days by Beckman Coulter counting method; format: functional, cell-based; details: time 3.0 day
# PC-9 [7] = experiment: Cytotoxicity against human PC-9 cells assessed as decrease in drug tolerant population at 50 nM supplemented with fresh medium containing compound every 3 days for 9 days in presence of erlotinib by Beckman Coulter counting method; format: functional, cell-based; details: time 9.0 day
# Transcription initiation factor TFIID subunit 1, sequence (P21675 whole entry): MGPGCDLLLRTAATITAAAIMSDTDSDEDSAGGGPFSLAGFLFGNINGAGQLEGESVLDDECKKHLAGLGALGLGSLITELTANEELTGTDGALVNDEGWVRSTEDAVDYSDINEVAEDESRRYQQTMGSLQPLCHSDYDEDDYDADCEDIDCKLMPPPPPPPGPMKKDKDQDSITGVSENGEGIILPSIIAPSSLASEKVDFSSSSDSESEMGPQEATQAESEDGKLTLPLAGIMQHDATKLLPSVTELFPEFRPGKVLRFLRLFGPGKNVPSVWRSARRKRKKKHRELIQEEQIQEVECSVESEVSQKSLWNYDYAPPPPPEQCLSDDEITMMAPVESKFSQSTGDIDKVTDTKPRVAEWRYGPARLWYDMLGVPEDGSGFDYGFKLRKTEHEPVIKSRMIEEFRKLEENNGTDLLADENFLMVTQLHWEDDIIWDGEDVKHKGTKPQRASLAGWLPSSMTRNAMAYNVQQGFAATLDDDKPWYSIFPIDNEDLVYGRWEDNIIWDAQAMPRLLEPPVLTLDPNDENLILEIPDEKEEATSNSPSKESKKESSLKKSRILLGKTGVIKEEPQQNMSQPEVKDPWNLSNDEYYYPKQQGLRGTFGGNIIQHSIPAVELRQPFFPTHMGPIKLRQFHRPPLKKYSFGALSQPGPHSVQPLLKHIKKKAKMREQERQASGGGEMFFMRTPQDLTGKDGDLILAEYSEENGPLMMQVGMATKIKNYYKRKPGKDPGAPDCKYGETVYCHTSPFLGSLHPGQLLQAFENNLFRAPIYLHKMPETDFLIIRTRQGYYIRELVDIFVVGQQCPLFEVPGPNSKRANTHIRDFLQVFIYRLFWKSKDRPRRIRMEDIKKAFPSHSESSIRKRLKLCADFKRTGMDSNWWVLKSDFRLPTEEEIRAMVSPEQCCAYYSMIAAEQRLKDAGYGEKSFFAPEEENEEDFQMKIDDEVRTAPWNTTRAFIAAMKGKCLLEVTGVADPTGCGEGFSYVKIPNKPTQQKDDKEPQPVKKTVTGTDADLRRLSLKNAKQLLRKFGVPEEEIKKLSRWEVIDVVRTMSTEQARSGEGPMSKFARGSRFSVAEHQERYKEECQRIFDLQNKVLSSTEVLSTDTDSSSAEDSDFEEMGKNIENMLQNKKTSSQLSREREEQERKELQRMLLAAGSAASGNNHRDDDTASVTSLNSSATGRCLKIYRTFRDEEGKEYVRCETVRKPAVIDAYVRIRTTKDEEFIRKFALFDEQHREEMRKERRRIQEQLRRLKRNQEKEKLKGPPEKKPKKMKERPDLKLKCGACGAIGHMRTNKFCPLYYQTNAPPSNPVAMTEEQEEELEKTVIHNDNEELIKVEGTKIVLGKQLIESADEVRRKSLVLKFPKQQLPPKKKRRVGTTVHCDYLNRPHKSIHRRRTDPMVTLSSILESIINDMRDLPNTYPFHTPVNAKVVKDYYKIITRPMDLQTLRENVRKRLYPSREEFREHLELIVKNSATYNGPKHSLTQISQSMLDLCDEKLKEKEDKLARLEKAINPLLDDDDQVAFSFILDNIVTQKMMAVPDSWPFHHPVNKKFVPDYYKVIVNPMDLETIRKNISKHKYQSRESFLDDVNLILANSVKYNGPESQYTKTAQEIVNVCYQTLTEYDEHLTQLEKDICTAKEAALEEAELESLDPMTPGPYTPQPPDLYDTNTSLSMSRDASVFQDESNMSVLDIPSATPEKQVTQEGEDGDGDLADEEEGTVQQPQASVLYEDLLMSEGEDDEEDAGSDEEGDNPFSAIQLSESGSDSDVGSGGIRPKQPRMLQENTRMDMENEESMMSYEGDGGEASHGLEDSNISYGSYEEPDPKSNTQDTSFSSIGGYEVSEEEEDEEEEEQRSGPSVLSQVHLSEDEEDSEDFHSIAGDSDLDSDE
# Chromatin remodeling regulator CECR2, sequence (Q9BXF3 whole entry): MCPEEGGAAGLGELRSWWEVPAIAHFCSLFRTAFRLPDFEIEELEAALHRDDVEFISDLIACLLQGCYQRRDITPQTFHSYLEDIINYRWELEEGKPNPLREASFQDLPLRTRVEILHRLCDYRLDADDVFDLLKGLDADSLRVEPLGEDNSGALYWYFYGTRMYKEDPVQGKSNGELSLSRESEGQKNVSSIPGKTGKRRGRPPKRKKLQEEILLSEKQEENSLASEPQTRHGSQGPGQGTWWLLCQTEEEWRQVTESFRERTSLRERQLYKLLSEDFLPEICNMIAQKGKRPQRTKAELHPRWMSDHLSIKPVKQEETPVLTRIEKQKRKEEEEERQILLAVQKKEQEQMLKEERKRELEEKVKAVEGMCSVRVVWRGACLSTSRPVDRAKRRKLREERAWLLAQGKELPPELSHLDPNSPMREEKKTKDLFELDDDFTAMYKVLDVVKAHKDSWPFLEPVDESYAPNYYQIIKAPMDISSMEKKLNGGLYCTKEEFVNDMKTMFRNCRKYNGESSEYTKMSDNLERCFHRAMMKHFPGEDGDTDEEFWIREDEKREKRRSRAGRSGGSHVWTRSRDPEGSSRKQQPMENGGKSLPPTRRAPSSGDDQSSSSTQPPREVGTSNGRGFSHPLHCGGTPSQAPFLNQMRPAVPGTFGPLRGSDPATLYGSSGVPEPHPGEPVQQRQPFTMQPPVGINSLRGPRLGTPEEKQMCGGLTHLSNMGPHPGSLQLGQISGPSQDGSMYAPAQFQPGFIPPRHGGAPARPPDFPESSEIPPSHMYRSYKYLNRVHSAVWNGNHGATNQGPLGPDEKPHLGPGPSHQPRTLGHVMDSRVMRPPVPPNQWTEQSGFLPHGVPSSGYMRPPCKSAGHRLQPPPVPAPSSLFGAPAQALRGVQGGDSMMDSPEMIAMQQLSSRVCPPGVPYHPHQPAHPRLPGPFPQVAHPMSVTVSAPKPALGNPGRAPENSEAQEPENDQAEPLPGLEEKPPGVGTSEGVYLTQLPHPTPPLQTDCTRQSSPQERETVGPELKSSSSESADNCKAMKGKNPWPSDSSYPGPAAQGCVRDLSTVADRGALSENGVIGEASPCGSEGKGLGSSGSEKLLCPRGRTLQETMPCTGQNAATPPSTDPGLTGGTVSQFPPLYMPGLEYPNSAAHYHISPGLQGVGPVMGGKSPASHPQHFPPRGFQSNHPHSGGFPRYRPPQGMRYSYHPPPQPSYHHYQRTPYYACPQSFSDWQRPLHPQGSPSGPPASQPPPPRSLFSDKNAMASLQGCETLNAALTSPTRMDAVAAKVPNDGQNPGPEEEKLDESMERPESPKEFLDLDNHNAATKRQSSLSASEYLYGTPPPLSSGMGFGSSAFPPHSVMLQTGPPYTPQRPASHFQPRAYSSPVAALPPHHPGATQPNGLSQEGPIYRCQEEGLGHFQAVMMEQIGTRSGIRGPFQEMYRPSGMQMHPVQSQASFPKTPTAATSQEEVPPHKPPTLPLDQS
SMILES,IC50 [1],IC50 [2],IC50 [3],IC50 [4],Activity (PC-9 [5]),Activity (PC-9 [6]),Activity (PC-9 [7])
C/C=C/Cn1cc(-c2ccc(C(=O)N3CCOCC3)cc2)c2cc(C)[nH]c2c1=O,1.6 µM,6.7 µM,0.81 µM,0.75 µM,,,
C#Cc1cccc(Nc2ncnc3cc(OCCOC)c(OCCOC)cc23)c1 [ERLOTINIB],,,,,>98%,,
CC(/C=C/C(=O)NO)=C\[C@@H](C)C(=O)c1ccc(N(C)C)cc1,,,,,,inactive,Active
C/C=C/Cn1cc(-c2ccc(C(=O)N3CCOCC3)c(C#N)c2)c2cc(C)[nH]c2c1=O,4.2 µM,13.5 µM,0.37 µM,0.52 µM,,,
C/C=C/Cn1cc(-c2ccc(C(=O)N3CCOCC3)c(OC)c2)c2cc(C)[nH]c2c1=O,3.3 µM,17.4 µM,1 µM,1.7 µM,,,
C/C=C/Cn1cc(-c2ccc(C(C)(C)O)cc2)c2cc[nH]c2c1=O,3.3 µM,6.1 µM,4.7 µM,5.5 µM,,,

# Further lines, with some results ahead:
IC50 [1],IC50 [2],IC50 [3],IC50 [4],SMILES,Activity (PC-9 [5]),Activity (PC-9 [6]),Activity (PC-9 [7])
6 µM,14.4 µM,1 µM,2.8 µM,C/C=C/Cn1cc(-c2ccc(C(=O)N3CCOCC3)c(C)c2)c2cc(C)[nH]c2c1=O,,,
3.5 µM,12.3 µM,0.46 µM,1.4 µM,C/C=C/Cn1cc(-c2ccc(C(=O)N3CCOCC3)c(Cl)c2)c2cc(C)[nH]c2c1=O,,,
